The values that follow come from patent publication US20100016324A1, “PHARMACEUTICAL COMPOSITIONS FOR THE TREATMENT OF CELLULITE” (MENARINI RICERCHE S.P.A., priority 2004, published 2010).

Series [1] relates to human adipocytes. In words: in vitro lipolysis test: glycerol release stimulated by 10 nM isoprenalin in cultured human adipocytes. It is filed as cell-based. The conditions noted are these: Adipocyte, 15 min preincubation, 4 h, read-out: % INCREASE IN LIPOLYSIS
Here is the method: Determination of extracellular glycerol produced by lipolysis of adipocyte triglycerides.
The in vitro lipolysis test was conducted on human adipocytes obtained from primary cultures of their progenitors, preadipocytes (Promocell), by inducing differentiation. The actual adipocyte differentiation was established by assaying glycerol-3-phosphate dehydrogenase (an enzyme expressed in mature adipocytes, but not in preadipocytes) and the lipids accumulated at intracellular level, with Oil Red O (Sigma).
The PDE3 inhibitors were preincubated with the adipocytes at various concentrations for 15 min; 10 nM of isoprenalin, able to induce weak stimulation of lipolysis (25% of the maximum response obtained with isoprenalin 1 μM), was then added. After 4 h the culture medium was removed, and […].
Lipolytic activity was evaluated by determining the glycerol released into the extracellular medium following triglyceride hydrolysis.
Effect of Some PDE Inhibitors on Glycerol Release, Stimulated by 10 nM Isoprenalin, in Cultured Human Adipocytes

The subject of series [2] is cellulite in the upper outer part of the thighs. The experiment in a line: In vivo test: thigh circumference in healthy female adults with cellulite, cream vs base cream. The conditions noted are these: cream with 1% Milrinone, topical, twice a day for 2 months, 10 healthy female adults. Set-up: species or system human. Here is the method: 10 healthy female adults presenting evident cellulite in the upper outer part of the thighs were examined. Each patient served as her own control for evaluation of efficacy and safety. […] Treatment with approx. 2-3 cm of cream, massaged in for 2-3 minutes until absorbed, was repeated twice a day every day for 2 months. […] The circumference of each thigh was measured periodically, two-thirds of the way between the knee and the greater trochanter, until the end of treatment. The reduction in circumference of the pharmacologically treated thigh compared with the untreated thigh was 2.9±0.7 cm, with a range of 1.3-4.7 cm.

The nature of series [3]: Determination of the compound in the blood at the end of the observation period. The series is classed as in vivo, human. Conditions: after topical cream with 1% Milrinone twice a day for 2 months. The procedure:
10 healthy female adults presenting evident cellulite in the upper outer part of the thighs were examined.
Each patient served as her own control for evaluation of efficacy and safety. The cream containing the active constituent (1% Milrinone) was spread on the outer part of one thigh, while the base cream (without the active constituent) was spread in the same area of the other thigh, in a randomised manner.
Treatment with approx. 2-3 cm of cream, massaged in for 2-3 minutes until absorbed, was repeated twice a day every day for 2 months.

The structures appear in SMILES notation.

Turning to `COc1ccc(-c2nc3ccc(C4=NNC(=O)CC4C)cc3[nH]2)cc1` (stereo not drawn) [Pimobendan, pimobendan], in series [1], the activation at 10 µM came out at 159 ± 22%. The same measure, in the same setting: the figure for `CSc1ccc(C(=O)c2[nH]c(=O)[nH]c2C)cc1` [Enoximone, enoximone] is 65 ± 4%; for `Nc1cc(-c2ccncc2)c[nH]c1=O` [Amrinone] it is 20 ± 6%. `Cc1[nH]c(=O)c(C#N)cc1-c1ccncc1` [Milrinone, milrinone]: the “reduction in circumference of the pharmacologically treated thigh compared with the untreated thigh” value in series [2] (mean ± spread) came out at 2.9±0.7 cm. For the same molecule, the “reduction in circumference of the pharmacologically treated thigh compared with the untreated thigh, range” value in series [2] (range across patients) is 1.3-4.7 cm. In addition, the activation at 10 µM in series [1] is 151 ± 16%. In addition, the “presence of the compound in the blood” value in series [3] was “did not detect the presence of the compound”. Consider `Cn1c(=O)c2c(ncn2C)n(C)c1=O` [Caffeine, caffeine], for which the activation at 10 µM in series [1] turned out to be 10 ± 5%. Same read-out and setting: the figure for `Cn1c(=O)c2[nH]cnc2n(C)c1=O` [Theophylline, theophylline] is 5 ± 4%; for `O=C1CCc2cc(OCCCCc3nnnn3C3CCCCC3)ccc2N1` [Cilostazol, cilostazol] it is 31 ± 9%; for `O=C1CN2Cc3c(ccc(Cl)c3Cl)N=C2N1` [Anagrelide, anagrelide] it is 114 ± 11%. The same measure, in the same setting: the result for `COc1cc2c(cc1OC)-c1c/c(=N\c3c(C)cc(C)cc3C)n(C)c(=O)n1CC2` [Trequinsin, trequinsin] reads 276 ± 59%.
